# Peptide text beside a SMILES is read from it.
# What was measured:
# Type in all cases: functional
# [1] = system: Pichia kudriavzevii; test: Antifungal activity against Candida krusei IFM56881 measured after 24 to 48 hrs by CLSI method; details: time 24-48 hrs
# [2] = system: Candida parapsilosis; test: Antifungal activity against Candida parapsilosis ATCC 22019 measured after 24 to 48 hrs by CLSI method; details: Lodderomyces parapsilosis, time 24-48 hrs
# [3] = system: Candida albicans; test: Antifungal activity against Candida albicans SC5314 measured after 24 to 48 hrs by CLSI method; details: time 24-48 hrs
# [4] = system: Cryptococcus neoformans; test: Antifungal activity against Cryptococcus neoformans H99 measured after 24 to 48 hrs by CLSI method; details: time 24-48 hrs
MIC [1],MIC [2],MIC [3],MIC [4],Structure (SMILES)
> 73.8 µM,18.4 µM,> 73.8 µM,2.31 µM,CSCC[C@H](NC(=O)[C@H](CCCNC(=N)N)NC(=O)[C@H](CCCCN)NC(=O)[C@H](CCCCN)NC(=O)[C@H](CCCCN)NC(=O)[C@H](Cc1c[nH]c2ccccc12)NC(=O)[C@H](CCCCN)NC(=O)[C@@H]1CCCN1C(=O)[C@H](CCCNC(=N)N)NC(=O)[C@@H](N)CCSC)C(=O)N[C@@H](CCCNC(=N)N)C(=O)N[C@@H](CCCNC(=N)N)C(=O)N[C@@H](CC(C)C)C(=O)N[C@@H](CCCCN)C(=O)N[C@@H](CCCNC(=N)N)C(=O)N[C@@H](CCCCN)C(=O)N[C@@H](CCCNC(=N)N)C(=O)N[C@@H](CCCCN)C(=O)N[C@@H](CCC(N)=O)C(=O)N[C@@H](CCCNC(=N)N)C(=O)N[C@@H](CCCNC(=N)N)C(=O)N[C@@H](C)C(=O)N[C@@H](CCCNC(=N)N)C(=O)N[C@@H](Cc1ccc(O)cc1)C(=O)N[C@@H](CCCCN)C(=O)O
28.6 µM,7.14 µM,14.3 µM,1.79 µM,CC[C@H](C)[C@H](NC(=O)CNC(=O)[C@H](CCCNC(=N)N)NC(=O)[C@H](Cc1ccc(O)cc1)NC(=O)[C@H](CS)NC(=O)[C@@H](NC(=O)[C@H](CCCNC(=N)N)NC(=O)[C@H](Cc1ccccc1)NC(=O)[C@H](CS)NC(=O)[C@H](Cc1c[nH]c2ccccc12)NC(=O)[C@@H](N)CCCCN)C(C)C)C(=O)N[C@@H](CS)C(=O)N[C@@H](Cc1ccc(O)cc1)C(=O)N[C@@H](CCCNC(=N)N)C(=O)N[C@@H](CCCCN)C(=O)N[C@@H](CS)C(=O)N[C@@H](CCCNC(=N)N)C(=O)O (H-KWCFRVCYRGICYRKCR-OH)
28.2 µM,7.05 µM,14.1 µM,3.53 µM,CC[C@H](C)[C@H](NC(=O)CNC(=O)[C@H](CCCNC(=N)N)NC(=O)[C@H](Cc1ccc(O)cc1)NC(=O)[C@H](CS)NC(=O)[C@@H](NC(=O)[C@H](CCCNC(=N)N)NC(=O)[C@H](Cc1ccccc1)NC(=O)[C@H](CS)NC(=O)[C@H](Cc1c[nH]c2ccccc12)NC(=O)[C@@H](N)CCCCN)C(C)C)C(=O)N[C@@H](CS)C(=O)N[C@@H](Cc1ccc(O)cc1)C(=O)N[C@@H](CCCNC(=N)N)C(=O)N[C@@H](CCCNC(=N)N)C(=O)N[C@@H](CS)C(=O)N[C@@H](CCCNC(=N)N)C(=O)O (H-KWCFRVCYRGICYRRCR-OH)
> 74.9 µM,> 74.9 µM,> 74.9 µM,37.4 µM,CSCC[C@H](N)C(=O)N[C@@H](C)C(=O)N[C@H](C(=O)N[C@@H](CCCCN)C(=O)N[C@@H](CCCCN)C(=O)N[C@@H](CCCCN)C(=O)N[C@H](C(=O)N[C@H](C(=O)N[C@@H](CCCCN)C(=O)N[C@@H](CCCCN)C(=O)N[C@@H](C)C(=O)N[C@H](C(=O)N[C@@H](CCCCN)C(=O)N[C@@H](CCCCN)C(=O)N[C@H](C(=O)N[C@@H](C)C(=O)N[C@@H](CCCCN)C(=O)N[C@@H](CCCCN)C(=O)N[C@@H](C)C(=O)N1CCC[C@H]1C(=O)N[C@@H](CCCCN)C(=O)N[C@@H](CCCCN)C(=O)N[C@@H](C)C(=O)N[C@H](C(=O)N[C@@H](CCCCN)C(=O)N[C@@H](CCCCN)C(=O)N[C@H](C(=O)N[C@@H](C)C(=O)N[C@@H](CCCCN)C(=O)N[C@@H](CCCCN)C(=O)N[C@@H](CCCCN)C(=O)O)C(C)C)C(C)C)C(C)C)C(C)C)C(C)C)C(C)C)[C@@H](C)O (H-MATKKKVVKKAVKKVAKKAPKKAVKKVAKKK-OH)
> 106 µM,> 106 µM,> 106 µM,> 106 µM,CC[C@H](C)[C@H](NC(=O)CNC(=O)[C@H](C)NC(=O)[C@H](CC(C)C)NC(=O)[C@H](C)NC(=O)[C@H](Cc1c[nH]c2ccccc12)NC(=O)[C@H](CC(C)C)NC(=O)[C@H](CCCCN)NC(=O)[C@H](CCCCN)NC(=O)[C@H](Cc1ccc(O)cc1)NC(=O)[C@H](CCCCN)NC(=O)[C@@H](N)CCSC)C(=O)N[C@@H](C)C(=O)N[C@@H](CC(C)C)C(=O)N[C@@H](CO)C(=O)N[C@@H](CS)C(=O)N[C@@H](CC(N)=O)C(=O)N[C@@H](CC(C)C)C(=O)N[C@@H](CC(C)C)C(=O)N[C@@H](CC(C)C)C(=O)N[C@H](C(=O)N[C@@H](C)C(=O)O)[C@@H](C)O (H-MKYKKLWALAGIALSCNLLLTA-OH)
> 102 µM,> 102 µM,> 102 µM,> 102 µM,CC[C@H](C)[C@H](NC(=O)[C@@H](NC(=O)[C@H](Cc1ccccc1)NC(=O)[C@H](CS)NC(=O)[C@@H](NC(=O)[C@H](CC(C)C)NC(=O)[C@H](Cc1ccccc1)NC(=O)[C@@H](NC(=O)[C@H](Cc1ccccc1)NC(=O)CNC(=O)[C@H](Cc1ccccc1)NC(=O)[C@H](CCCCN)NC(=O)[C@H](CCCCN)NC(=O)[C@H](CCCCN)NC(=O)[C@H](CC(C)C)NC(=O)[C@@H](N)CCSC)C(C)C)C(C)C)C(C)C)C(=O)N[C@@H](Cc1ccccc1)C(=O)N[C@@H](Cc1cnc[nH]1)C(=O)N[C@@H](CO)C(=O)N[C@@H](CS)C(=O)N[C@@H](CCCCN)C(=O)O (H-MLKKKFGFVFLVCFVIFHSCK-OH)
56.9 µM,14.2 µM,14.2 µM,7.12 µM,CC[C@H](C)[C@H](NC(=O)[C@H](CCCCN)NC(=O)[C@H](CO)NC(=O)[C@H](Cc1ccccc1)NC(=O)[C@@H](NC(=O)[C@@H](NC(=O)[C@H](CCCNC(=N)N)NC(=O)[C@H](Cc1ccccc1)NC(=O)[C@@H](NC(=O)[C@H](CCCCN)NC(=O)[C@H](CC(N)=O)NC(=O)[C@@H](N)CCSC)[C@@H](C)CC)C(C)C)[C@@H](C)CC)C(=O)N[C@@H](CC(C)C)C(=O)NCC(=O)N[C@@H](CCCNC(=N)N)C(=O)N[C@@H](CC(C)C)C(=O)N[C@H](C(=O)N[C@H](C(=O)N[C@H](C(=O)O)[C@@H](C)O)C(C)C)[C@@H](C)CC (H-MNKIFRVIFSKILGRLIVT-OH)
> 92.2 µM,> 92.2 µM,> 92.2 µM,92.2 µM,CC[C@H](C)[C@H](NC(=O)[C@H](CCC(N)=O)NC(=O)[C@H](CCCCN)NC(=O)[C@H](CCCCN)NC(=O)[C@H](Cc1c[nH]c2ccccc12)NC(=O)[C@@H]1CCCN1C(=O)[C@@H](NC(=O)[C@H](CC(C)C)NC(=O)[C@H](CCCNC(=N)N)NC(=O)[C@H](CC(C)C)NC(=O)[C@@H](NC(=O)[C@H](CC(C)C)NC(=O)[C@@H]1CCCN1C(=O)[C@H](CCCCN)NC(=O)[C@H](Cc1cnc[nH]1)NC(=O)[C@H](CS)NC(=O)[C@H](CCCCN)NC(=O)[C@H](CCCNC(=N)N)NC(=O)[C@H](CC(C)C)NC(=O)[C@H](CCCNC(=N)N)NC(=O)[C@@H](N)CCSC)[C@@H](C)O)C(C)C)C(=O)N[C@@H](CCSC)C(=O)O (H-MRLRKCHKPLTLRLVPWKKQIM-OH)
21.9 µM,43.8 µM,43.8 µM,5.47 µM,CC[C@H](C)[C@H](NC(=O)[C@H](CCCCN)NC(=O)[C@@H](NC(=O)[C@@H](N)CCSC)[C@@H](C)O)C(=O)N[C@@H](CC(C)C)C(=O)N[C@@H](CC(C)C)C(=O)N[C@H](C(=O)N[C@H](C(=O)N[C@@H](CCCCN)C(=O)N[C@@H](CCCNC(=N)N)C(=O)N[C@@H](CC(C)C)C(=O)N[C@@H](CCCNC(=N)N)C(=O)N[C@H](C(=O)N[C@H](C(=O)N[C@@H](Cc1ccc(O)cc1)C(=O)N[C@H](C(=O)N[C@@H](CCCCN)C(=O)N[C@@H](CCCNC(=N)N)C(=O)N[C@@H](CS)C(=O)N[C@@H](CC(C)C)C(=O)N[C@@H](CS)C(=O)N[C@@H](Cc1ccccc1)C(=O)N[C@@H](CCCNC(=N)N)C(=O)N[C@@H](C)C(=O)O)[C@@H](C)O)C(C)C)[C@@H](C)O)C(C)C)[C@@H](C)CC (H-MTKILLIVKRLRTVYTKRCLCFRA-OH)
> 70.7 µM,4.42 µM,> 70.7 µM,8.84 µM,CC[C@H](C)[C@H](NC(=O)[C@H](C)NC(=O)[C@H](CCCCN)NC(=O)[C@H](CCCNC(=N)N)NC(=O)[C@@H](NC(=O)[C@H](CCCNC(=N)N)NC(=O)[C@H](CCCNC(=N)N)NC(=O)CNC(=O)[C@H](Cc1ccc(O)cc1)NC(=O)[C@H](CCCNC(=N)N)NC(=O)[C@H](C)NC(=O)CNC(=O)[C@H](Cc1ccccc1)NC(=O)[C@H](CCCNC(=N)N)NC(=O)CNC(=O)[C@H](C)NC(=O)[C@H](CO)NC(=O)[C@H](CCCCN)NC(=O)[C@@H](NC(=O)[C@H](CCCCN)NC(=O)[C@@H](NC(=O)CNC(=O)[C@H](CCCCN)NC(=O)[C@H](CCCCN)NC(=O)[C@H](CCCNC(=N)N)NC(=O)[C@H](CCCCN)NC(=O)[C@H](CCC(N)=O)NC(=O)[C@H](CCCCN)NC(=O)[C@H](CCCCN)NC(=O)[C@@H](NC(=O)[C@@H](N)CCSC)[C@@H](C)O)[C@@H](C)CC)[C@@H](C)O)[C@@H](C)CC)C(=O)O (H-MTKKQKRKKGIKTKSAGRFGARYGRRIRKAI-OH)
> 92.4 µM,> 92.4 µM,> 92.4 µM,> 92.4 µM,CC[C@H](C)[C@H](NC(=O)[C@H](CCCCN)NC(=O)[C@H](CC(C)C)NC(=O)[C@H](Cc1ccccc1)NC(=O)[C@H](CC(C)C)NC(=O)[C@H](Cc1ccccc1)NC(=O)[C@@H](NC(=O)[C@H](CO)NC(=O)[C@H](CO)NC(=O)[C@@H](NC(=O)[C@H](Cc1ccccc1)NC(=O)[C@@H](NC(=O)[C@H](CO)NC(=O)[C@H](Cc1ccc(O)cc1)NC(=O)[C@@H](N)CCSC)C(C)C)[C@@H](C)CC)[C@@H](C)CC)C(=O)N[C@@H](CCCNC(=N)N)C(=O)N[C@@H](Cc1ccccc1)C(=O)N[C@@H](CCCCN)C(=O)N[C@@H](CC(C)C)C(=O)N[C@@H](Cc1ccc(O)cc1)C(=O)N1CCC[C@H]1C(=O)N[C@@H](CCCNC(=N)N)C(=O)O (H-MYSVFISSIFLFLKIRFKLYPR-OH)
> 120 µM,> 120 µM,> 120 µM,> 120 µM,CC(C)C[C@H](NC(=O)[C@H](CCC(=O)O)NC(=O)[C@H](CCCCN)NC(=O)[C@H](CC(C)C)NC(=O)[C@@H](NC(=O)[C@@H]1CCCN1)C(C)C)C(=O)N[C@@H](CCCCN)C(=O)N[C@@H](CO)C(=O)N[C@H](C(=O)N[C@@H](CCC(N)=O)C(=O)N[C@@H](CCCCN)C(=O)N[C@H](C(=O)N[C@@H](CCCCN)C(=O)N[C@@H](CO)C(=O)NCC(=O)N[C@@H](CC(=O)O)C(=O)N[C@H](C(=O)N[C@@H](CC(C)C)C(=O)N[C@@H](Cc1ccc(O)cc1)C(=O)O)[C@@H](C)O)[C@@H](C)O)C(C)C (H-PVLKELKSVQKTKSGDTLY-OH)

# From ChEMBL document CHEMBL5113381, “Large-Scale Screening of Antifungal Peptides Based on Quantitative Structure-Activity Relationship” (2022)
